# Results from BindingDB's records for patent US20250333410 (Xizang Haisco Pharmaceutical, 2025).
# Target: Potassium voltage-gated channel subfamily H member 2 (Homo sapiens, UniProt Q12809)
# Assay: Test for hERG Potassium Ion Channel
# Description: Experimental method: in CHO (Chinese Hamster Ovary) cells stably expressing hERG potassium channel, the whole cell patch-clamp technique was used to record hERG potassium channel current at room temperature. The glass microelectrode was made of a glass electrode blank (BF150-86-10, Sutter) by a puller. The tip resistance after filling the liquid in the electrode was about 2-5 MΩ. The glass microelectrode can be connected to the patch-clamp amplifier by inserting the glass microelectrode into an amplifier probe. The clamping voltage and data recording were controlled and recorded by the pClamp 10 software through a computer. The sampling frequency was 10 kHz, and the filtering frequency was 2 kHz. After the whole cell records were obtained, the cells were clamped at −80 mV, and the step voltage that induced the hERG potassium current (IhERG) was depolarized from −80 mV to +20 mV for 2 s, then repolarized to −50 mV, and returned to −80 mV after 1 s. This voltage stimulation was given every 10 s, and the administration process was started after the hERG potassium current was confirmed to be stable (at least 1 minute). The compound was administered for at least 1 minute at each test concentration, and at least 2 cells (n≥2) were tested at each concentration.
# Potassium voltage-gated channel subfamily H member 2, sequence (Q12809 whole entry): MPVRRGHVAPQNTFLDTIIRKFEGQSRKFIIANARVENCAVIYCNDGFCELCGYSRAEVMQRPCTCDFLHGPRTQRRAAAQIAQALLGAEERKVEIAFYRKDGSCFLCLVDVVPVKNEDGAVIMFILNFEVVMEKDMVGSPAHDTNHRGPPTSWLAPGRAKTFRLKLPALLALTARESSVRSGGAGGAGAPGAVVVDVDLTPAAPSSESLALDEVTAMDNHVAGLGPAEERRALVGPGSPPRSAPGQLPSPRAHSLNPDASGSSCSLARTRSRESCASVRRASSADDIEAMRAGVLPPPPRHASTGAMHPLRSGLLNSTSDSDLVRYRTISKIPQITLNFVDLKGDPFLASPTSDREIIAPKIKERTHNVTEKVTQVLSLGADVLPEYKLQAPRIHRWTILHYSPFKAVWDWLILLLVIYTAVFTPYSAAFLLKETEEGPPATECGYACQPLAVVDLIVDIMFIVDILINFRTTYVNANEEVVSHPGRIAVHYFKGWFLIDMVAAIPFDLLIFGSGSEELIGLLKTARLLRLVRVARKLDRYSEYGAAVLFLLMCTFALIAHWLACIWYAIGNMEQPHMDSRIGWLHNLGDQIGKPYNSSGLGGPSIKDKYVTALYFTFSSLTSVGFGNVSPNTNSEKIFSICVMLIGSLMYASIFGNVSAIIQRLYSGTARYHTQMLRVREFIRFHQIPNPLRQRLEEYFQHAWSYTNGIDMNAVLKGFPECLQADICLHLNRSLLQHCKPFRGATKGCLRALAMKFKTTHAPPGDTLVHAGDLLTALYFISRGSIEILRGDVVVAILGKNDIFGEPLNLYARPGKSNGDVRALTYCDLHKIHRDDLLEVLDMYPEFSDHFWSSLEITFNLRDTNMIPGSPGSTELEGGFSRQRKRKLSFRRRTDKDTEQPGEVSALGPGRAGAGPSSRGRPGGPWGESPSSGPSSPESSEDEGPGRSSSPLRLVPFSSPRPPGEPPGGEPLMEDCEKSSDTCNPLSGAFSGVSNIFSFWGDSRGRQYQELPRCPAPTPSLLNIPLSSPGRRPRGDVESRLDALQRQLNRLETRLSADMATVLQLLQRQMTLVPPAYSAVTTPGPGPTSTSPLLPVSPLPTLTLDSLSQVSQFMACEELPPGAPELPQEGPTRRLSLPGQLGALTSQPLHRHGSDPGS
row,SMILES,IC50
1,"CNC(=O)COc1cc2cc(Nc3nc(N4CCC(CN5CCC(C6CCN(c7cccc8c(C9CCC(=O)NC9=O)nn(C)c78)CC6)CC5)CC4)ncc3Cl)ccc2n(C)c1=O (stereo unspecified) [US20250333410, Compound 8]",> 40 µM
2,"CNC(=O)COc1cc2cc(Nc3nc(N4CCC(CN5CCC(c6cccc7c6n(C)c(=O)n7C6CCC(=O)NC6=O)CC5)CC4)ncc3Cl)ccc2n(C)c1=O (stereo unspecified) [US20250333410, Compound 35]",> 30 µM
3,"CNC(=O)COc1cc2cc(Nc3nc(N4CCN(CC5CCN(c6ccc7c8c(oc7c6)C(=O)N(C6CCC(=O)NC6=O)C8)CC5)CC4)ncc3Cl)ccc2n(C)c1=O (stereo unspecified) [US20250333410, Compound 46]",> 30 µM
4,"CNC(=O)COc1cc2cc(Nc3nc(N4CCN(CC5CC6(CCN(c7scc8c7C(=O)N(C7CCC(=O)NC7=O)C8=O)CC6)C5)CC4)ncc3Cl)ccc2n(C)c1=O (stereo unspecified) [US20250333410, Compound 67]",> 40 µM
5,"CNC(=O)COc1cc2cc(Nc3nc(N4CCC(N5CCN(c6ccc(NC7CCC(=O)NC7=O)cc6F)CC5)C(F)(F)C4)ncc3Cl)ccc2n(C)c1=O (stereo unspecified) [US20250333410, Compound 71]",> 40 µM
6,"CNC(=O)COc1cc2cc(Nc3nc(N4CC[C@@H](N5CCN(c6ccc(N[C@@H]7CCC(=O)NC7=O)cc6F)CC5)C(F)(F)C4)ncc3Cl)ccc2n(C)c1=O [US20250333410, Compound 72]",> 40 µM
7,"CNC(=O)COc1cc2cc(Nc3nc(N4CC[C@H](N5CCN(c6ccc(N[C@@H]7CCC(=O)NC7=O)cc6F)CC5)C(F)(F)C4)ncc3Cl)ccc2n(C)c1=O [US20250333410, Compound 73]",> 40 µM
8,"CC(=O)COc1cc2cc(Nc3nc(N4CC[C@@H](N5CCN(c6ccc(N[C@H]7CCC(=O)NC7=O)cc6F)CC5)C(F)(F)C4)ncc3Cl)ccc2n(C)c1=O [US20250333410, Compound 75]",> 40 µM
9,"CC(=O)COc1cc2cc(Nc3nc(N4CCC(N5CCN(c6c(F)cc(C7CCC(=O)NC7=O)cc6F)CC5)C(F)(F)C4)ncc3Cl)ccc2n(C)c1=O (stereo unspecified) [US20250333410, Compound 76]",> 40 µM
10,"CNC(=O)COc1cc2cc(Nc3nc(N4CCC(N5CCN(c6cccc7c6n(C)c(=O)n7C6CCC(=O)NC6=O)CC5)C(F)(F)C4)ncc3Cl)ccc2n(C)c1=O (stereo unspecified) [US20250333410, Compound 77]",> 40 µM
11,"CCC(=O)COc1cc2cc(Nc3nc(N4CCC(N5CCN(c6cccc7c(C8CCC(=O)NC8=O)nn(C)c67)CC5)C(F)(F)C4)ncc3Cl)ccc2n(C)c1=O (stereo unspecified) [US20250333410, Compound 78]",> 40 µM
